Where a SMILES comes first, the peptide text is derived from it. Bridges are numbered along the chain shown (N, C = ends). [ ]: non-standard residue; d: D form. The star is where a group is joined. hPhe(3,5-F2-4-CF3) = N[C@@H](CCc1cc(F)c(C(F)(F)F)c(F)c1)C(=O)O; hPhe(3-Cl-4-CF3) = N[C@@H](CCc1ccc(C(F)(F)F)c(Cl)c1)C(=O)O; NPrPhe(4-CF3) = CCCN[C@@H](Cc1ccc(C(F)(F)F)cc1)C(=O)O; NMeGly(cPent) = CN[C@H](C(=O)O)C1CCCC1; Pro(4,4-F2) = O=C(O)[C@@H]1CC(F)(F)CN1; NMeD = CN[C@@H](CC(=O)O)C(=O)O; NMeL = CN[C@@H](CC(C)C)C(=O)O; αMeS = C[C@](N)(CO)C(=O)O; Morpholide = C1CN(*)CCO1; Aze = O=C(O)[C@@H]1CCN1; Ac4c = NC1(C(=O)O)CCC1; Sar = CNCC(=O)O
Legend:
[1] = target: GDP-bound KRAS wild-type protein (Homo sapiens, UniProt P01116); test: Binding to KRAS by surface plasmon resonance (SPR), dissociation constant KD
Chain of GDP-bound KRAS wild-type protein (P01116 1-188 isoform P01116-2): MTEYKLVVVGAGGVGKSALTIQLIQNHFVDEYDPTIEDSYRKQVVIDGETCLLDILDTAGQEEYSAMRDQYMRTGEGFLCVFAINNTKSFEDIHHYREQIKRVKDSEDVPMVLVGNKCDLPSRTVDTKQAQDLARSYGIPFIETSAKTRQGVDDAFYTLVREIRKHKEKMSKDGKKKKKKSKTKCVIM
In short: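 GDP-bound biotin-Avi RAS captured at ~100–300 RU, 30°C, pH 7.4 HBS containing 10 µM GDP, 10 mM MgCl2, 1 mM DTT, 0.01% Tween 20 and 4% DMSO. KD by 1:1 fitting.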

[2] = target: GDP-bound NRAS wild-type protein (Homo sapiens, UniProt P01111); test: Binding to NRAS by surface plasmon resonance (SPR), KD and KD ratio to KRAS
Chain of GDP-bound NRAS wild-type protein (P01111 whole entry): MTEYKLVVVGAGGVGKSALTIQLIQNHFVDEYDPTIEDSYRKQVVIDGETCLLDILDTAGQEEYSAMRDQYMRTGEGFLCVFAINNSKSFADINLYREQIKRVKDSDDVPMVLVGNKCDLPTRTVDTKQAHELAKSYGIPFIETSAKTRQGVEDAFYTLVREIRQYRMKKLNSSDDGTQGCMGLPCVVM
In short: (§1)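 Single-cycle kinetics on GDP-loaded biotin-Avi RAS captured to ~100–300 RU; 75 s ascending injections, 100 µL/min, 30°C. HBS pH 7.4 + 10 mM MgCl2/10 µM GDP/4% DMSO. 1:1 fit, KD.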

[3] = target: HRAS wild-type protein (Homo sapiens, UniProt P01112); test: Binding to HRAS by surface plasmon resonance (SPR), KD and KD ratio to KRAS
Chain of HRAS wild-type protein (P01112 whole entry): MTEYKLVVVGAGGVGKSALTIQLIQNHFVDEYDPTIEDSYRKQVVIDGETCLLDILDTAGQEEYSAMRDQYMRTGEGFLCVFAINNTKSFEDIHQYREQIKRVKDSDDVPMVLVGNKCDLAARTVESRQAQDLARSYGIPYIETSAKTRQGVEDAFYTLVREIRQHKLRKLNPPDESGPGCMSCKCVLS
In short: as §1

[4] = system: human lung cancer strain NCI-H441; assay type: cell-based
In short: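 Proliferation was scored by […] measured after the reagent was added to cultures kept at 37°C in 5% carbon dioxide.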

[5] = Single Cycle Kinetics, 1:1 binding model
[6] = ratio of KD value for GDP-bound NRAS wild-type protein to KD value for KRAS (SPR)
[7] = ratio of KD value for HRAS wild-type protein to KD value for KRAS (SPR)
[8] = ratio of KD for GDP-bound NRAS wild-type protein to KD for KRAS
[9] = ratio of KD for HRAS wild-type protein to KD for KRAS
[10] = ratio of the KD value with respect to GDP-bound NRAS wild-type protein to the KD value with respect to KRAS
[11] = ratio of the KD value with respect to HRAS wild-type protein to the KD value with respect to KRAS

Kd [1, 5] [nM] | IC50 [4] [nM] | Kd ([1]; Single Cycle Kinetics) [nM] | Kd ([1]; 1:1 binding model) [nM] | SMILES | NRAS /KRAS [2, 6] | HRAS /KRAS [3, 7] | NRAS /KRAS [2, 8] | HRAS /KRAS [3, 9] | NRAS /KRAS [2, 10] | HRAS /KRAS [3, 11]
0.06 | 8.7 |  |  | CCC[C@H]1C(=O)N[C@@H]([C@@H](C)CC)C(=O)N(C)CC(=O)N(C)[C@H]2C/C=C\CCN(C2=O)[C@@H](Cc2ccc(C)cc2)C(=O)N(C)CC(=O)N[C@@H](CCc2cc(F)c(C(F)(F)F)c(F)c2)C(=O)N2CCC[C@H]2C(=O)N(C)C2(CCC2)C(=O)N(C)[C@@H](C2CCCC2)C(=O)N(C)[C@H](C(=O)N(C)C)CC(=O)N1C [PP1794] | A (a compound having 10 or more and less than 20 is denoted as A) | B (a compound having 3 or more and less than 10 is denoted as B) |  |  |  | 
0.091 | 5 |  |  | CCC[C@H]1C(=O)N[C@@H]([C@@H](C)CC)C(=O)N(C)CC(=O)N(C)[C@H]2C/C=C\CCN(C2=O)[C@@H](Cc2ccc(C)cc2)C(=O)N(C)CC(=O)N[C@@H](CCc2ccc(C(F)(F)F)c(OC)c2)C(=O)N2C[C@@H](C)C[C@H]2C(=O)NC2(CCC2)C(=O)N(C)[C@@H](C2CCCC2)C(=O)N(C)[C@H](C(=O)N(C)C)CC(=O)N1C [PP1857] | A (a compound having 10 or more and less than 20 is denoted as A) | B (a compound having 3 or more and less than 10 is denoted as B) |  |  |  | 
 | 364 | 5.1 |  | CCCN1C(=O)CN(C)C(=O)[C@@H]2CCN2C(=O)[C@H]([C@@H](C)CC)NC(=O)[C@H](CC(C)C)N(C)C(=O)C[C@@H](C(=O)N2CCOCC2)N(C)C(=O)[C@H](C2CCCC2)N(C)C(=O)[C@](C)(COC)NC(=O)[C@@H]2CCCN2C(=O)[C@H](CCc2cc(F)c(C(F)(F)F)c(F)c2)NC(=O)CN(C)C(=O)[C@@H]1Cc1ccc(C(F)(F)F)cc1 [PP0779] ([NMeL]I[Aze][Sar][NPrPhe(4-CF3)][Sar][hPhe(3,5-F2-4-CF3)]P[αMeS](Me)[NMeGly(cPent)][NMeD]-Morpholide; lactam N-11) |  |  | B (a compound having 3 or more and less than 10 is denoted as B) | B (a compound having 3 or more and less than 10 is denoted as B) |  | 
 | 19.1 |  | 0.32 | CCC[C@H]1C(=O)N[C@@H](C2CCCCC2)C(=O)N(C)CC(=O)N(C)[C@H]2C/C=C\CCN(C2=O)[C@@H](Cc2ccc(C)cc2)C(=O)N(C)CC(=O)N[C@@H](CCc2ccc(C(F)(F)F)c(Cl)c2)C(=O)N2C[C@H](OCC)C[C@H]2C(=O)NC2(CC(C)(C)C2)C(=O)N(C)[C@@H](CC(C)(C)C)C(=O)N(C)[C@H](C(=O)N(C)C)CC(=O)N1C [PP3018] |  |  | A (a compound having 10 or more and less than 20 is denoted as A) | B (a compound having 3 or more and less than 10 is denoted as B) |  | 
 | 29.2 |  | 0.4 | CCO[C@@H]1C[C@H]2C(=O)NC3(CC(C)(C)C3)C(=O)N(C)[C@@H](C3CCCC3)C(=O)N(C)[C@H](C(=O)N(C)C)CC(=O)N(C)[C@@H]([C@@H](C)OC)C(=O)N[C@@H]([C@@H](C)CC)C(=O)N3CCC[C@H]3C(=O)N(C)[C@H]3C/C=C\CCN(C3=O)[C@@H](Cc3ccc(C(F)(F)F)cc3)C(=O)N(C)CC(=O)N[C@@H](CCc3ccc(C(F)(F)F)c(OC)c3)C(=O)N2C1 [PP3204] |  |  | A (a compound having 10 or more and less than 20 is denoted as A) | A (a compound having 10 or more and less than 20 is denoted as A) |  | 
 | 50.1 |  | 0.6 | CCO[C@@H]1C[C@H]2C(=O)NC3(CC(C)(C)C3)C(=O)N(C)[C@@H](C3CCCC3)C(=O)N(C)[C@H](C(=O)N(C)CC)CC(=O)N(C)[C@@H]([C@H](C)OC)C(=O)N[C@@H]([C@@H](C)CC)C(=O)N(C3CC3)CC(=O)N(C)[C@H]3C/C=C\CCN(C3=O)[C@@H](Cc3ccc(C)cc3)C(=O)N(C)CC(=O)N[C@@H](CCc3ccc(C(F)(F)F)c(Cl)c3)C(=O)N2C1 [PP3159] |  |  | A (a compound having 10 or more and less than 20 is denoted as A) | A (a compound having 10 or more and less than 20 is denoted as A) |  | 
20 | > 600 |  |  | CCO[C@@H]1C[C@H]2C(=O)NC3(CCC3)C(=O)N(C)[C@@H](C3CCCC3)C(=O)N(CCC3CCC3)[C@H](C(=O)N3CCOCC3)CC(=O)N(C)[C@@H](CC(C)C)C(=O)N[C@@H]([C@@H](C)CC)C(=O)N(C)CC(=O)N(C)[C@H]3CCCCCN(C3=O)[C@@H](Cc3ccc(C(F)(F)F)cc3)C(=O)N(C)CC(=O)N[C@@H](CCc3cc(F)c(C(F)(F)F)c(F)c3)C(=O)N2C1 [PP0640] |  |  |  |  | B (a compound having 3 or more and less than 10 is denoted as B) | B (a compound having 3 or more and less than 10 is denoted as B)
 | 23.5 |  | 1.8 | CC[C@H](C)[C@@H]1NC(=O)[C@H](CC(C)C)N(C)C(=O)C[C@@H](C(=O)N2CCOCC2)N(C)C(=O)[C@H](C2CCCC2)N(C)C(=O)C2(CCCC2)NC(=O)[C@@H]2CCCN2C(=O)[C@H](CCc2ccc(C(F)(F)F)c(Cl)c2)NC(=O)CN(C)C(=O)[C@H](Cc2ccc(C(F)(F)F)cc2)N2CCCCC[C@@H](C2=O)N(C)C(=O)CN(C)C1=O [PP0319] |  |  | B (a compound having 3 or more and less than 10 is denoted as B) | B (a compound having 3 or more and less than 10 is denoted as B) |  | 
0.37 | 21.7 |  |  | CCCN1C(=O)CN(C)C(=O)[C@@H]2CCN2C(=O)[C@H]([C@@H](C)CC)NC(=O)[C@H](CC(C)C)N(C)C(=O)C[C@@H](C(=O)N2CCOCC2)N(C)C(=O)[C@H](C2CCCC2)N(C)C(=O)C2(CCC2)NC(=O)[C@@H]2CC(F)(F)CN2C(=O)[C@H](CCc2ccc(C(F)(F)F)c(Cl)c2)NC(=O)CN(C)C(=O)[C@@H]1Cc1ccc(C(F)(F)F)cc1 [PP0404] ([NMeL]I[Aze][Sar][NPrPhe(4-CF3)][Sar][hPhe(3-Cl-4-CF3)][Pro(4,4-F2)][Ac4c][NMeGly(cPent)][NMeD]-Morpholide; lactam N-11) |  |  |  |  | B (a compound having 3 or more and less than 10 is denoted as B) | C (A compound having a KD ratio of 0.1 or more and less than 3 is denoted as C)
 | 8.9 |  | 0.32 | CCC(CC)[C@H]1C(=O)N(C)[C@H](C(=O)N(C)C)CC(=O)N(C)[C@@H](COC)C(=O)N[C@@H]([C@@H](C)CC)C(=O)N(C)CC(=O)N(C)[C@H]2C/C=C\CCN(C2=O)[C@@H](Cc2ccc(C)cc2)C(=O)N(C)CC(=O)N[C@@H](CCc2cc(F)c(C(F)(F)F)c(F)c2)C(=O)N2CCCCC[C@H]2C(=O)NC2(CC(C)(C)C2)C(=O)N1C [PP2960] |  |  | A (a compound having 10 or more and less than 20 is denoted as A) | A (a compound having 10 or more and less than 20 is denoted as A) |  | 
1.6 | 50.9 |  |  | CCC[C@H]1C(=O)N[C@@H]([C@H](C)CC)C(=O)N(C)CC(=O)N(C)[C@H]2C/C=C\CCN(C2=O)[C@@H](Cc2ccc(C)cc2)C(=O)N(C)CC(=O)N[C@@H](CCc2ccc(C(F)(F)F)c(Cl)c2)C(=O)N2C[C@H](OCC)C[C@H]2C(=O)NC2(CC(C)(C)C2)C(=O)N(C)[C@@H](CC(C)(C)C)C(=O)N(C)[C@H](C(=O)N(C)C)CC(=O)N1C [PP2219] |  |  |  |  | A (a compound having 10 or more and less than 20 is denoted as A) | A (a compound having 10 or more and less than 20 is denoted as A)
2 | 690 |  |  | CC[C@H](C)[C@@H]1NC(=O)[C@H](CC)N(C)C(=O)C[C@@H](C(=O)N(C)C)N(C)C(=O)[C@H](C2CCCC2)N(C)C(=O)C2(CCC2)NC(=O)[C@@H]2CCN2C(=O)[C@H](CCc2cc(F)c(C(F)(F)F)c(F)c2)NC(=O)CN(C)C(=O)[C@H](Cc2ccc(C(F)(F)F)cc2)N2CCCCC[C@@H](C2=O)N(C)C(=O)CN(C)C1=O [PP0654] |  |  |  |  | B (a compound having 3 or more and less than 10 is denoted as B) | B (a compound having 3 or more and less than 10 is denoted as B)
 | 134 | 0.49 |  | CCO[C@@H]1C[C@H]2C(=O)NC3(CCC3)C(=O)N(C)[C@@H](C3CCCC3)C(=O)N(C)[C@H](C(=O)N(C)C)CC(=O)N(C)[C@@H](CC)C(=O)N[C@@H]([C@@H](C)CC)C(=O)N(C)CC(=O)N(C)[C@H]3CC(C)=C(C)CN(C3=O)[C@@H](Cc3ccc(C(F)(F)F)cc3)C(=O)N(C)CC(=O)N[C@@H](CCc3cc(F)c(C(F)(F)F)c(F)c3)C(=O)N2C1 [PP1048] |  |  | C (A compound having a KD ratio of 0.1 or more and less than 3 is denoted as C) | C (A compound having a KD ratio of 0.1 or more and less than 3 is denoted as C) |  | 
38 | 401 |  |  | CC[C@H](C)[C@@H]1NC(=O)[C@H](CC(C)C)N(C)C(=O)C[C@@H](C(=O)N2CCOCC2)N(C)C(=O)[C@H](C2CCCC2)N(C)C(=O)C2(CCCC2)NC(=O)[C@@H]2CCCN2C(=O)[C@H](CCc2cc(F)c(C(F)(F)F)c(F)c2)NC(=O)CN(C)C(=O)[C@H](Cc2ccc(C(F)(F)F)cc2)N2CCCC[C@@H](C2=O)N(C)C(=O)[C@H](CC)N(C)C1=O [PP0551] |  |  |  |  | C (A compound having a KD ratio of 0.1 or more and less than 3 is denoted as C) | B (a compound having 3 or more and less than 10 is denoted as B)
